What all share (assay): NCI anticancer screen, dose series, 48 h
The subject of assay [1] is HCT-116 colon.
Assay [2] has as its system OVCAR-4 ovarian.
Assay [3] deals with MALME-3M melanoma.
In assay [4] the test system is SK-MEL-5 melanoma.
The subject of assay [5] is KM12 colon.
For assay [6], the system named is HS 578T breast.
For assay [7], the system named is HL-60(TB) leukemia.
Assay [8] concerns TK-10 renal.
In assay [9] the test system is K-562 leukemia.
Assay [10] relates to BT-549 breast.

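Following 48 hours of exposure in 96-well plates, responses at five concentrations were used to interpolate endpoints linearly. Abbreviation: GI50, concentration required for 50% inhibition of growth. TGI: total growth inhibition.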 Some results are limits rather than exact numbers.

Experimental findings from PubChem BioAssay (NCI) are described below.

For the compound `COc1cc(/C=C/c2cc(/C=C/c3ccc(O)c(OC)c3)n(C(=O)Nc3ccc(Cl)cc3)n2)ccc1O`, the GI50 in assay [1] was 0.354 µM; in [2], 0.803 µM; in assay [3] it was 0.76 µM; in assay [4], 0.306 µM; in assay [5], 0.354 µM; in assay [6], 0.732 µM. Further, the GI50 in assay [7] is 0.292 µM; in assay [8], 0.966 µM; in [9], 0.306 µM; in [10] it was 0.885 µM. The TGI in [1] was 2.54 µM; in assay [2], 5.73 µM; in assay [3], 3.96 µM; in assay [4], 1.25 µM; in assay [5], 1.84 µM; in assay [6] it was 5.63 µM. In addition, the TGI in [7] was 0.982 µM; in assay [8], 6.18 µM; in [9] it was 1.34 µM; in [10] it was 3.51 µM.

Consider `Cc1ccc(-c2nc(-c3cn(C)c4ncccc34)cs2)cc1`, for which the GI50 in assay [1] is 3.11 µM; in assay [2], 12.8 µM; in [3], 4.85 µM; in assay [4], 3.7 µM; in assay [5] it was 1.2 µM; in [6], 4.71 µM. In addition, the GI50 in assay [7] is 2.54 µM; in [8], 6.74 µM; in assay [9], 1.91 µM; in [10], 8 µM. Moreover, the TGI in assay [1] turned out to be 12.3 µM; in assay [2] it was 46.4 µM; in assay [3], 26.5 µM; in [4], 14.6 µM; in assay [5], 14 µM; in assay [6] it was 26.6 µM. Moreover, the TGI in assay [7] was 26.2 µM; in assay [8], 21.6 µM; in assay [9], above 34.5 µM; in assay [10], 32.4 µM.

As to `Nc1nc(=O)n([C@@H]2CS[C@H](CO)O2)cc1F`, the GI50 in [1], in assay [2], in assay [3], in [4], in assay [5] and in assay [6] was above 100 µM each time. The GI50 in assay [7], in [8], in assay [9] and in assay [10] was above 100 µM each time. Further, the TGI in assay [1], in assay [2], in assay [3], in assay [4], in [5] and in assay [6] was above 100 µM throughout. For the same compound, the TGI in [7], in assay [8], in assay [9] and in assay [10] was above 100 µM in each case.

On to `C[C@]12CCNC(=O)C=C1CC[C@@H]1C2CC[C@@]2(C)C1CC[C@@H]2OC(=O)COc1ccc(N(CCCl)CCCl)cc1` (stereo partly drawn), for which the TGI turned out to be 13.9 µM in assay [1]; 20.5 µM in assay [2]; 24.6 µM in assay [3]; 24.6 µM in assay [4]; 24.4 µM in [5]; 98.1 µM in [6]. In addition, the TGI in assay [7] was 7.4 µM; in assay [8], 35.6 µM; in [9], 46.3 µM; in assay [10] it was 60.2 µM.

As to `COc1cc(C2C3=C(COC3=O)N(CCO)c3cc4c(cc32)OCO4)cc(OC)c1O` (stereo not drawn), the GI50 in assay [1] is 1.88 µM; in assay [2] it was 2.99 µM; in assay [3] it was 1.96 µM; in [4], 0.832 µM; in [5], 1.35 µM; in [6] it was 1.3 µM. In addition, the GI50 in [7] was 1.32 µM; in assay [8], 4.54 µM; in assay [9], 1.49 µM; in [10], 2.28 µM. The TGI in assay [1] was above 26.3 µM; in assay [2], above 50 µM; in [3], above 50 µM; in assay [4], 3.42 µM; in assay [5], above 20.6 µM; in [6], 4.59 µM. The TGI in [7] is 3.26 µM; in [8], above 50 µM; in [9], above 50 µM; in [10], above 34.3 µM.

As to `Cc1cc(Cl)ccc1Nc1nc(C(F)(F)F)ccc1C(=O)N/N=C/c1ccccc1Cl`, the GI50 in assay [1] is 0.439 µM; in assay [2], 0.422 µM; in [3] it was 1.54 µM; in assay [4] it was 1.39 µM; in assay [5], 0.902 µM; in [6] it was 1.26 µM. Besides, the GI50 was 1.12 µM in assay [7], 1 µM in [8], 0.588 µM in [9] and 1.12 µM in assay [10]. For the same compound, the TGI in [1] is 3.18 µM; in assay [2], above 100 µM; in assay [3] it was 6.18 µM; in assay [4], 3.51 µM; in assay [5], 8.14 µM; in assay [6], 5.67 µM. In addition, the TGI in [8] is 16.1 µM; in assay [10], 5.75 µM.

Turning to `CC1=C(C)C2(O)C(=C(C)C1=O)/C(=C(/O)c1ccccc1)c1nc3ccccc3n12` (stereo not drawn), the GI50 was 29.4 µM in assay [1]; 13.5 µM in assay [2]; 19.1 µM in assay [3]; 16.6 µM in assay [4]; 17.6 µM in [5]; 29.3 µM in assay [6]. Also, the GI50 in assay [7] is 18.3 µM; in assay [8], 20.1 µM; in assay [9], 24.5 µM; in assay [10] it was 22.6 µM. For the same compound, the TGI was 72 µM in assay [1]; 27.1 µM in assay [2]; 43.9 µM in [3]; 31.3 µM in assay [4]; 37.6 µM in [5]; 94.6 µM in assay [6]. Besides, the TGI was determined as 56.7 µM in assay [7], 58.9 µM in assay [8], 52 µM in [9] and 54.8 µM in assay [10].

Regarding `Cc1cccc(NC(=O)/C=C/c2ccc([N+](=O)[O-])cc2)c1`, the TGI in assay [1] was above 52.9 µM; in assay [2] it was above 56.3 µM; in assay [3], 66.9 µM; in [4] it was above 51 µM; in [5], above 52.8 µM; in assay [6], above 87 µM. Moreover, the TGI in assay [7] was above 24.8 µM; in assay [8], above 56.8 µM; in assay [9] it was above 100 µM; in [10] it was above 51.8 µM.
